SMILES strings stand for the structures. Some results are limits rather than exact numbers.

The target in this test is T1, human acetyl-CoA carboxylase 2 (ACC2) (Homo sapiens, UniProt O00763).
T1 construct: The cDNA encoding amino acids 144 to 2458 of human acetyl-CoA carboxylase 2; made in house; host or cells: Sf9 insect cells (baculovirus, pFastBac1)
T1 sequence (O00763 144-2458): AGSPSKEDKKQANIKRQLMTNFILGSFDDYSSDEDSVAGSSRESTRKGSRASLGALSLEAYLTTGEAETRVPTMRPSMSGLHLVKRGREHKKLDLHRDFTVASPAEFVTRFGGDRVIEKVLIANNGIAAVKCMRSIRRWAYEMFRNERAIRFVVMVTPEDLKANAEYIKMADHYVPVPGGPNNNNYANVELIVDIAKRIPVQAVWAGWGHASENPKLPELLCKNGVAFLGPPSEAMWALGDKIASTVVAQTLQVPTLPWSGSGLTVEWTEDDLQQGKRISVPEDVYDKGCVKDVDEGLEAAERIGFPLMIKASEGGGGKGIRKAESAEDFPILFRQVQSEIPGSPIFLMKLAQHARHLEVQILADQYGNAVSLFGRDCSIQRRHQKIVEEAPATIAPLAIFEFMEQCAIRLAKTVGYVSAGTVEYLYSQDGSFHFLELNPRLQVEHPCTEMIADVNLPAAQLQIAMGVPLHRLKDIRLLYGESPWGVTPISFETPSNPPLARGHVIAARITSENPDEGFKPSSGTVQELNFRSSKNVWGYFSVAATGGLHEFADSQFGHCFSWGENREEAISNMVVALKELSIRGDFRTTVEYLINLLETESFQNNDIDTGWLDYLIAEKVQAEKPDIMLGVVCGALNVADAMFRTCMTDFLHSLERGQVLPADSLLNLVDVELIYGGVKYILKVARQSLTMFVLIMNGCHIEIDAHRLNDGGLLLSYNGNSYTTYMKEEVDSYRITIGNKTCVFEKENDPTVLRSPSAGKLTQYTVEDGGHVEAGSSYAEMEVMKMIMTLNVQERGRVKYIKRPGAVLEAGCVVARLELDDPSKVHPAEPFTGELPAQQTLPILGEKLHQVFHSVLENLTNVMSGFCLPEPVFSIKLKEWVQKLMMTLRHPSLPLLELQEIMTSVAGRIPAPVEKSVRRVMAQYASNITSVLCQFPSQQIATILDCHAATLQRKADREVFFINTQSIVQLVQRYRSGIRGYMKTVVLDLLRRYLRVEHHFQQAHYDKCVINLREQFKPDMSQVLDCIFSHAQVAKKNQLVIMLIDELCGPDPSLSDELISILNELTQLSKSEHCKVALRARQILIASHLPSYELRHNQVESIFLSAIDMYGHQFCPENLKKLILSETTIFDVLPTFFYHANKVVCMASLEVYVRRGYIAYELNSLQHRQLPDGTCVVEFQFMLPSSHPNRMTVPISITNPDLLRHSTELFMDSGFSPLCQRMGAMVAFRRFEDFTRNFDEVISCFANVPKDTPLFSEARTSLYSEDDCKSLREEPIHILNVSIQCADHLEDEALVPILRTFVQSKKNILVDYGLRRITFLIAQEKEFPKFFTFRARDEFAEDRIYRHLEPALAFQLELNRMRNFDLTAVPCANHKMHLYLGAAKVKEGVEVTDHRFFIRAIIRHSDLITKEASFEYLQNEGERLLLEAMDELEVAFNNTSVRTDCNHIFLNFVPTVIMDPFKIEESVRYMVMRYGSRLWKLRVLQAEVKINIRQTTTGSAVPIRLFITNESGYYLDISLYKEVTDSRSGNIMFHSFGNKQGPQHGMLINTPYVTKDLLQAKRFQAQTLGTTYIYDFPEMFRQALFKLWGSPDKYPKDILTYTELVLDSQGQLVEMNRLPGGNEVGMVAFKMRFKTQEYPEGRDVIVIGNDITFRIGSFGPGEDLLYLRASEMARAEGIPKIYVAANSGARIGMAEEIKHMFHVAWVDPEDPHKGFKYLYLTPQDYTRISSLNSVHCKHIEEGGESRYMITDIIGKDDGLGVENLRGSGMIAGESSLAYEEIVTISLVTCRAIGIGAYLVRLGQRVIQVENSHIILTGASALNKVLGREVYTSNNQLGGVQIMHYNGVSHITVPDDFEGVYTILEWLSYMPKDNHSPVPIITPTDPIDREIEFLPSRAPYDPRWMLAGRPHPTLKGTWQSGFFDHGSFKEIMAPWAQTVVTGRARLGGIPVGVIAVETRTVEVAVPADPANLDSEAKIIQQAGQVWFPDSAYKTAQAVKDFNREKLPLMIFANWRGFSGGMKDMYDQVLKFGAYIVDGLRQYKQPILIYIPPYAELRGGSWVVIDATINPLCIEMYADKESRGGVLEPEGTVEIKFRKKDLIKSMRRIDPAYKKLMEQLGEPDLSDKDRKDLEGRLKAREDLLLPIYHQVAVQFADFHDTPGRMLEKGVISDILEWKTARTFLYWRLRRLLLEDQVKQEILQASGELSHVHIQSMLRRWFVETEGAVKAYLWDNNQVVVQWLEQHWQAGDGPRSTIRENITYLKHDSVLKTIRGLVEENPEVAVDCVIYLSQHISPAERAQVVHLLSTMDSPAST
Put plainly: Acetyl-CoA carboxylase enzyme assay (malonyl-CoA formation by LC/MS/MS). It is filed as biochemical. The conditions noted are these: recombinant human ACC2 (aa 144-2458); read-out: IC50 ACC2. In short, it runs like this:
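Malonyl-CoA formation was read by LC/MS/MS MRM against a [13C3]-malonyl-CoA internal standard, after acetic acid quench. The enzyme was baculovirus/Sf9-expressed human ACC2 residues 144–2458, given 15 minutes room-temperature compound preincubation in HEPES pH 7.5 buffer with MgCl2, citrate and DTT. Substrate solution held 50 μM acetyl-CoA, 120 μM ATP and 2 mM KHCO3.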
The IC50 is the concentration at which inhibition is half-maximal. Consider `C[C@@H](NC(=O)[C@H]1CC[C@H](NS(=O)(=O)c2cnc3c(c2)N(C2CC2)CCN3C)CC1)c1ccc(F)cc1` [Example 132, (1r,4R)-4-(1-cyclopropyl-4-methyl-1,2,3,4-tetrahydropyrido[3,2-b]pyrazine-7-surfonamido)-N-((R)-1-(4-fluorophenyl)ethyl)cyclohexanecarboxamide], for which the IC50 is 68 nM.
With `C[C@@H](NC(=O)[C@H]1CC[C@H](NC(=O)Nc2ccc3[nH]c(-c4ccccc4)nc3c2)CC1)c1ccc(F)cc1` [Example 41, (1r,4R)-N-((R)-1-(4-fluorophenyl)ethyl)-4-(3-(2-phenyl-1H-benzo[d]imidazol-5-yl)ureido)cyclohexanecarboxamide], the IC50 was 4640 nM.
The same measure for `COc1ccc(CNCc2ccc(-c3nc4cc(S(=O)(=O)Nc5ccc(C(=O)OC(C)C)cc5)ccc4[nH]3)cc2)cc1OC` [Example 563, isopropyl 4-(2-(4-((3,4-dimethoxybenzylamino)methyl)phenyl)-1H-benzo[d]imidazole-5-sulfonamido)benzoate]: 351 nM; for `O=C(NCCO)[C@H]1CC[C@H](NS(=O)(=O)c2ccc3[nH]c(-c4ccccc4)nc3c2)CC1` [Example 621, (1r,4r)-N-(2-hydroxyethyl)-4-(2-phenyl-1H-benzo[d]imidazole-5-sulfonamido)cyclohexanecarboxamide]: 1520 nM.
As to `COC(=O)c1cccc(-c2nc3cc(S(=O)(=O)N[C@H]4CC[C@H](c5nnc(C(C)(C)C)o5)CC4)ccc3[nH]2)c1` [Example 608, methyl 3-(5-(N-((1r,4r)-4-(5-tert-butyl-1,3,4-oxadiazol-2-yl)cyclohexyl)sulfamoyl)-1H-benzo[d]imidazol-2-yl)benzoate], the IC50 was 971 nM.
Turning to `C[C@@H](NC(=O)[C@H]1CC[C@H](NS(=O)(=O)c2ccc3c(c2)Cc2ccccc2-3)CC1)c1ccc(F)cc1` [Example 226, (1r,4R)-4-(9H-fluorene-2-sulfonamido)-N-((R)-1-(4-fluorophenyl)ethyl)cyclohexanecarboxamide], the IC50 was determined as 10 nM.
As to `CC(C)(NC(=O)[C@H]1CC[C@H](NS(=O)(=O)c2ccc3[nH]c(-c4ccccc4)nc3c2)CC1)c1ccccc1` [Example 582, (1r,4r)-4-(2-phenyl-1H-benzo[d]imidazole-5-sulfonamido)-N-(2-phenylpropan-2-yl)cyclohexanecarboxamide], the IC50 is 250 nM.
As to `CC(C)(O)[C@H]1CCCN1C(=O)[C@H]1CC[C@H](NS(=O)(=O)c2ccc3cc(-c4ccccc4)[nH]c3c2)CC1` [Example 465, N-((1R,4r)-4-((R)-2-(2-hydroxypropan-2-yl)pyrrolidine-1-carbonyl)cyclohexyl)-2-phenyl-1H-indole-6-sulfonamide], the IC50 came out at 20 nM.
The same measure for `C[C@@H](NC(=O)[C@H]1CC[C@H](NS(=O)(=O)c2ccc3cc(-c4ccccc4C#N)[nH]c3c2)CC1)c1ccc(F)cc1` [Example 307, (1r,4R)-4-(2-(2-cyanophenyl)-1H-indole-6-sulfonamido)-N-((R)-1-(4-fluorophenyl)ethyl)cyclohexanecarboxamide]: 10 nM; for `C[C@@H](NC(=O)[C@H]1CC[C@H](NS(=O)(=O)c2cnc3c(c2)NCC(C)(C)CN3)CC1)c1ccc(F)cc1` [Example 153, (1r,4R)-4-(3,3-dimethyl-2,3,4,5-tetrahydro-1H-pyrido[2,3-b][1,4]diazepine-8-sulfonamido)-N-((R)-1-(4-fluorophenyl)ethyl)cyclohexanecarboxamide]: 440 nM.
Regarding `CCOc1ccc2cc(S(=O)(=O)N[C@H]3CC[C@H](C(=O)N4CCNC[C@@H]4C(=O)O)CC3)ccc2n1` [Example 246, (R)-1-((1r,4R)-4-(2-ethoxyquinoline-6-sulfonamido)cyclohexanecarbonyl)piperazine-2-carboxylic acid], the IC50 was greater than 35000 nM.
In the case of `Cc1ccnc2ncc(S(=O)(=O)N[C@H]3CC[C@H](C(=O)N[C@H](C)c4ccc(F)cc4)CC3)cc12` [Example 140, (1r,4R)-N-((R)-1-(4-fluorophenyl)ethyl)-4-(5-methyl-1,8-naphthyridine-3-sulfonamido)cyclohexanecarboxamide], the half-maximal inhibitory concentration (IC50) was determined as 986 nM.
Regarding `C[C@@H](NC(=O)[C@H]1CC[C@H](NS(=O)(=O)c2ccc3[nH]c(-c4ccc(N5CCN(C)CC5)cc4)nc3c2)CC1)c1ccccc1` [Example 575, (1r,4R)-4-(2-(4-(4-methylpiperazin-1-yl)phenyl)-1H-benzo[d]imidazole-5-sulfonamido)-N-((R)-1-phenylethyl)cyclohexanecarboxamide], the IC50 was less than 10 nM.
The same measure for `CC(C)(O)[C@@H](NC(=O)[C@H]1CC[C@H](NS(=O)(=O)c2ccc3ccccc3c2)CC1)c1ccccc1` [Example 96, (1r,4S)-N-((S)-2-hydroxy-2-methyl-1-phenylpropyl)-4-(naphthalene-2-sulfonamido)cyclohexanecarboxamide]: 10 nM; for `CC(C)(C)OC(=O)N1CCN(C(=O)[C@H]2CC[C@H](NS(=O)(=O)c3ccc4c(c3)CCC(C(F)(F)F)N4)CC2)C(c2ccccc2)C1` (stereo partly drawn) [Example 179, tert-butyl 3-phenyl-4-((1r,4r)-4-(2-(trifluoromethyl)-1,2,3,4-tetrahydroquinoline-6-sulfonamido)cyclohexanecarbonyl)piperazine-1-carboxylate]: 433 nM; for `O=C([C@H]1CC[C@H](NS(=O)(=O)c2ccc3[nH]c(-c4ccccc4)nc3c2)CC1)N1CCN(CC2CCCCC2)CC1` [Example 627, N-((1r,4r)-4-(4-(cyclohexylmethyl)piperazine-1-carbonyl)cyclohexyl)-2-phenyl-1H-benzo[d]imidazole-5-sulfonamide]: 2060 nM.
Turning to `Cc1ccccc1-c1cc2ccc(S(=O)(=O)N[C@H]3CC[C@H](C(=O)N4CCC[C@H]4C)CC3)cc2[nH]1` [Example 137, N-((1R,4r)-4-((R)-2-methylpyrrolidine-1-carbonyl)cyclohexyl)-2-o-tolyl-1H-indole-6-sulfonamide], the IC50 was determined as 162 nM.
On to `CC(C)OC(=O)c1ccc(NS(=O)(=O)c2ccc3[nH]c(Nc4cccc(-n5ccsc5=O)c4)nc3c2)cc1` [Example 549, isopropyl 4-(2-(3-(2-oxothiazol-3(2H)-yl)phenylamino)-1H-benzo[d]imidazole-5-sulfonamido)benzoate], for which the IC50 came to 737 nM.
On to `CC(C)[C@H]1COCCN1C(=O)[C@H]1CC[C@H](NS(=O)(=O)c2ccc3cc(C4CC4)n(C)c3c2)CC1` [Example 22, 2-cyclopropyl-N-((1S,4r)-4-((S)-3-isopropylmorpholine-4-carbonyl)cyclohexyl)-1-methyl-1H-indole-6-sulfonamide], for which the IC50 was 70 nM.
As to `Cc1c[nH]c2ncc(S(=O)(=O)N[C@H]3CC[C@H](C(=O)N[C@H](C)c4ccc(F)cc4)CC3)cc12` [Example 138, (1r,4R)-N-((R)-1-(4-fluorophenyl)ethyl)-4-(3-methyl-1H-pyrrolo[2,3-b]pyridine-5-sulfonamido)cyclohexanecarboxamide], the IC50 was determined as 147 nM.
`COCc1ccc(-c2cc3ccc(S(=O)(=O)N[C@H]4CC[C@H](C(=O)N5CCOC[C@@H]5C5CC5)CC4)cc3n2C)cc1` [Example 456, N-((1S,4r)-4-((S)-3-cyclopropylmorpholine-4-carbonyl)cyclohexyl)-2-(4-(methoxymethyl)phenyl)-1-methyl-1H-indole-6-sulfonamide]: the IC50 is less than 10 nM.

Source of the values: patent publication US8697739B2, “Bicyclic acetyl-CoA carboxylase inhibitors and uses thereof” (Novartis AG, priority 2010, dated 2014).
